Experimental data published in ChEMBL document CHEMBL1201861, “Genomics of Drug Sensitity in Cancer screening data, Wellcome Trust Sanger Institute”.

Legend:
CPC-N = experiment: cells; assay type: functional, cell-based; conditions: Homo sapiens;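 note: growth inhibition of CPC-N cells, with a cell viability assay as the readout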
Description: SANGER: Inhibition of human CPC-N cell growth in a cell viability assay.

DMS-153 = experiment: cells; assay type: functional, cell-based; conditions: Homo sapiens
Description: SANGER: Inhibition of human DMS-153 cell growth in a cell viability assay.

DSH1 = experiment: cells; assay type: functional, cell-based, Homo sapiens; conditions: Homo sapiens, DSH1;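 note: growth inhibition of human DSH1 cells, measured with a cell viability readout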
Description: SANGER: Inhibition of human DSH1 cell growth in a cell viability assay.

DU-4475 = experiment: cells; assay type: functional, cell-based; conditions: Homo sapiens
Description: SANGER: Inhibition of human DU-4475 cell growth in a cell viability assay.

EB2 = experiment: cells; assay type: functional, cell-based; conditions: Homo sapiens;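 note: growth inhibition of EB2 cells, read out with a cell viability assay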
Description: SANGER: Inhibition of human EB2 cell growth in a cell viability assay.

GB-1 = experiment: cells; assay type: functional, cell-based, Homo sapiens; conditions: Homo sapiens, GB-1;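 note: growth of GB-1 cells judged by a viability assay, IC50 marks the concentration inhibiting growth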
Description: SANGER: Inhibition of human GB-1 cell growth in a cell viability assay.

HDLM-2 = experiment: cells; assay type: functional, cell-based; conditions: Homo sapiens;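 note: cell viability assay measuring suppression of HDLM-2 proliferation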
Description: SANGER: Inhibition of human HDLM-2 cell growth in a cell viability assay.

HT-144 = experiment: cells; assay type: functional, cell-based, Homo sapiens; conditions: Homo sapiens, HT-144
Description: SANGER: Inhibition of human HT-144 cell growth in a cell viability assay.

LC4-1 = experiment: cells; assay type: functional, cell-based; conditions: Homo sapiens;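 note: growth inhibition of LC4-1 cells, read out with a cell viability assay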
Description: SANGER: Inhibition of human LC4-1 cell growth in a cell viability assay.

LS-123 = experiment: cells; assay type: functional, cell-based, Homo sapiens; conditions: Homo sapiens, LS-123
MC-CAR = experiment: cells; assay type: functional, cell-based; conditions: Homo sapiens;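 note: growth inhibition of the human MC-CAR cell line, read out by a cell viability assay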
Description: SANGER: Inhibition of human MC-CAR cell growth in a cell viability assay.

NALM-6 = experiment: cells; assay type: functional, cell-based; conditions: Homo sapiens;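 note: growth inhibition of NALM-6 cells, read out with a cell viability assay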
Description: SANGER: Inhibition of human NALM-6 cell growth in a cell viability assay.

NCCIT = experiment: SANGER: Inhibition of human NCCIT cell growth in a cell viability assay.; assay type: functional, cell-based
NCI-H1395 = experiment: cells; assay type: functional, cell-based, Homo sapiens; conditions: Homo sapiens, NCI-H1395;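 note: cell viability assay read-out quantifying reduced proliferation of human NCI-H1395 cells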
Description: SANGER: Inhibition of human NCI-H1395 cell growth in a cell viability assay.

NCI-H1522 = experiment: cells; assay type: functional, cell-based; conditions: Homo sapiens;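 note: growth inhibition of NCI-H1522 cells, read out with a cell viability assay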
Description: SANGER: Inhibition of human NCI-H1522 cell growth in a cell viability assay.

NCI-H524 = experiment: cells; assay type: functional, cell-based; conditions: Homo sapiens;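 note: growth inhibition of human NCI-H524 cells, read out through a cell viability assay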
Description: SANGER: Inhibition of human NCI-H524 cell growth in a cell viability assay.

NCI-H64 = experiment: cells; assay type: functional, cell-based; conditions: Homo sapiens;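 note: growth inhibition of NCI-H64 cells, read out with a cell viability assay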
Description: SANGER: Inhibition of human NCI-H64 cell growth in a cell viability assay.

NCI-H748 = experiment: cells; assay type: functional, cell-based; conditions: Homo sapiens;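 note: growth inhibition of NCI-H748 cells, measured by a cell viability assay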
Description: SANGER: Inhibition of human NCI-H748 cell growth in a cell viability assay.

NCI-H889 = experiment: cells; assay type: functional, cell-based; conditions: Homo sapiens;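 note: cell growth inhibition of the cell line, read out with a viability assay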
Description: SANGER: Inhibition of human NCI-H889 cell growth in a cell viability assay.

REH = experiment: cells; assay type: functional, cell-based; conditions: Homo sapiens;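 note: growth inhibition of REH cells determined with a cell viability read-out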
Description: SANGER: Inhibition of human REH cell growth in a cell viability assay.

RPMI 8402 = experiment: SANGER: Inhibition of human RPMI-8402 cell growth in a cell viability assay.; assay type: functional, cell-based
SIG-M5 = experiment: cells; assay type: functional, cell-based; conditions: Homo sapiens;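 note: cell viability assay read-out, measuring how strongly growth of cultured human SIG-M5 cells is inhibited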
Description: SANGER: Inhibition of human SIG-M5 cell growth in a cell viability assay.

SR = experiment: cells; assay type: functional, cell-based; conditions: Homo sapiens
Description: SANGER: Inhibition of human SR cell growth in a cell viability assay.

ST486 = experiment: SANGER: Inhibition of human ST486 cell growth in a cell viability assay.; assay type: functional, cell-based
TALL-1 = experiment: cells; assay type: functional, cell-based; conditions: Homo sapiens;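 note: growth inhibition of cultured human TALL-1 cells, read out by a cell viability assay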
Description: SANGER: Inhibition of human TALL-1 cell growth in a cell viability assay.

A3-KAW = experiment: cells; assay type: functional, cell-based; conditions: Homo sapiens;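 note: growth inhibition of human A3-KAW cells, read out with a cell viability assay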
Description: SANGER: Inhibition of human A3-KAW cell growth in a cell viability assay.

BC-3 = experiment: cells; assay type: functional, cell-based; conditions: Homo sapiens;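 note: cell viability assay measuring growth inhibition of human BC-3 cells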
Description: SANGER: Inhibition of human BC-3 cell growth in a cell viability assay.

TE-441-T = experiment: cells; assay type: functional, cell-based; conditions: Homo sapiens
Description: SANGER: Inhibition of human TE-441-T cell growth in a cell viability assay.

TE-6 = experiment: cells; assay type: functional, cell-based, Homo sapiens; conditions: Homo sapiens, TE-6;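 note: growth inhibition of TE-6 cells, read out with a cell viability assay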
Description: SANGER: Inhibition of human TE-6 cell growth in a cell viability assay.

THP-1 = experiment: cells; assay type: functional, cell-based; conditions: Homo sapiens;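 note: growth inhibition of THP-1 cells, read out via a cell viability assay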
Description: SANGER: Inhibition of human THP-1 cell growth in a cell viability assay.

TUR = experiment: cells; assay type: functional, cell-based; conditions: Homo sapiens;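 note: growth inhibition of human TUR cells, read out with a cell viability assay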
Description: SANGER: Inhibition of human TUR cell growth in a cell viability assay.

U-698-M = experiment: cells; assay type: functional, cell-based; conditions: Homo sapiens
Description: SANGER: Inhibition of human U-698-M cell growth in a cell viability assay.

no-11 = experiment: cells; assay type: functional, cell-based, Homo sapiens; conditions: Homo sapiens;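 note: growth inhibition of human NO-11 cells, read out with a cell viability assay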
Description: SANGER: Inhibition of human no-11 cell growth in a cell viability assay.

CGTH-W-1 = experiment: cells; assay type: functional, cell-based, Homo sapiens; conditions: Homo sapiens, CGTH-W-1;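 note: growth inhibition of human CGTH-W-1 cells measured by cell viability assay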
Description: SANGER: Inhibition of human CGTH-W-1 cell growth in a cell viability assay.

CMK = experiment: cells; assay type: functional, cell-based; conditions: Homo sapiens;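 note: growth inhibition of CMK cells, read out as cell viability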
Description: SANGER: Inhibition of human CMK cell growth in a cell viability assay.

DU-145 = experiment: cells; assay type: functional, cell-based, Homo sapiens; conditions: Homo sapiens, DU-145
Description: SANGER: Inhibition of human DU-145 cell growth in a cell viability assay.

G-361 = experiment: cells; assay type: functional, cell-based, Homo sapiens; conditions: Homo sapiens, G-361
H4 = experiment: cells; assay type: functional, cell-based; conditions: Homo sapiens
Description: SANGER: Inhibition of human H4 cell growth in a cell viability assay.

HSC-4 = experiment: cells; assay type: functional, cell-based, Homo sapiens; conditions: Homo sapiens, HSC-4;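 note: growth inhibition of human HSC-4 cells, read out with a cell viability assay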
Description: SANGER: Inhibition of human HSC-4 cell growth in a cell viability assay.

HT-1080 = experiment: cells; assay type: functional, cell-based, Homo sapiens; conditions: Homo sapiens, HT-1080
Description: SANGER: Inhibition of human HT-1080 cell growth in a cell viability assay.

HT55 = experiment: cells; assay type: functional, cell-based, Homo sapiens; conditions: Homo sapiens, HT55;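 note: cell viability readout measuring growth inhibition of human HT55 cells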
Description: SANGER: Inhibition of human HT55 cell growth in a cell viability assay.

J82 = experiment: cells; assay type: functional, cell-based; conditions: Homo sapiens;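 note: growth inhibition of J82 cells, read out with a cell viability assay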
Description: SANGER: Inhibition of human J82 cell growth in a cell viability assay.

MEL-JUSO = experiment: cells; assay type: functional, cell-based, Homo sapiens; conditions: Homo sapiens, MEL-JUSO;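 note: growth inhibition of human MEL-JUSO cells, read out with a cell viability assay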
Description: SANGER: Inhibition of human MEL-JUSO cell growth in a cell viability assay.

NCI-H1792 = experiment: cells; assay type: functional, cell-based, Homo sapiens; conditions: Homo sapiens, NCI-H1792;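 note: growth inhibition of human NCI-H1792 cells, read out as cell viability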
Description: SANGER: Inhibition of human NCI-H1792 cell growth in a cell viability assay.

NCI-H441 = experiment: cells; assay type: functional, cell-based; conditions: Homo sapiens;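 note: growth inhibition of NCI-H441 cells, read out with a cell viability assay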
Description: SANGER: Inhibition of human NCI-H441 cell growth in a cell viability assay.

NCI-H522 = experiment: cells; assay type: functional, cell-based, Homo sapiens; conditions: Homo sapiens, NCI-H522;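 note: cell viability assay measuring growth inhibition of human NCI-H522 cells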
Description: SANGER: Inhibition of human NCI-H522 cell growth in a cell viability assay.

PA-1 = experiment: cells; assay type: functional, cell-based, Homo sapiens; conditions: Homo sapiens, PA-1;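 note: IC50 for suppression of PA-1 cell proliferation, determined with a cell viability read-out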
Description: SANGER: Inhibition of human PA-1 cell growth in a cell viability assay.

PC-14 = experiment: cells; assay type: functional, cell-based, Homo sapiens; conditions: Homo sapiens, PC-14;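 note: cell viability assay measuring inhibition of PC-14 cell growth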
Description: SANGER: Inhibition of human PC-14 cell growth in a cell viability assay.

SK-MEL3 = experiment: cells; assay type: functional, cell-based, Homo sapiens, SK-MEL-3; conditions: Homo sapiens, SK-MEL3;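 note: growth inhibition of human SK-MEL-3 cells, read out with a cell viability assay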
Description: SANGER: Inhibition of human SK-MEL-3 cell growth in a cell viability assay.

SNU-423 = experiment: cells; assay type: functional, cell-based, Homo sapiens; conditions: Homo sapiens, SNU-423
Description: SANGER: Inhibition of human SNU-423 cell growth in a cell viability assay.

23132-87 = experiment: cells; assay type: functional, cell-based, Homo sapiens; conditions: Homo sapiens
Description: SANGER: Inhibition of human 23132-87 cell growth in a cell viability assay.

AU565 = experiment: cells; assay type: functional, cell-based, Homo sapiens; conditions: Homo sapiens, AU565;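 note: cell viability assay measuring growth inhibition of human AU565 cells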
Description: SANGER: Inhibition of human AU565 cell growth in a cell viability assay.

COLO-680N = experiment: cells; assay type: functional, cell-based, Homo sapiens; conditions: Homo sapiens, COLO-680N;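 note: cell viability assay used to measure inhibition of COLO-680N cell growth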
Description: SANGER: Inhibition of human COLO-680N cell growth in a cell viability assay.

Measured: IC50

C=C1C(=O)O[C@@H]2C3O[C@]3(C)CC/C=C(\C)CC[C@@H]12 (stereo partly drawn)
2.29 µM: A3-KAW
not listed: DU-145 | G-361 | H4 | HSC-4 | HT-1080 | HT55 | J82 | MEL-JUSO | NCI-H1792 | NCI-H441 | NCI-H522 | PA-1 | PC-14 | SK-MEL3 | SNU-423 | 23132-87 | AU565 | COLO-680N
> 5 µM: all other assays above

COC(=O)CNC(=O)C(=O)OC
273 µM: NCI-H64
839 µM: NCI-H441
421 µM: HT-1080
126 µM: CMK
1870 µM: TE-441-T
414 µM: HSC-4
2760 µM: NCI-H524
509 µM: MC-CAR
554 µM: HT55
1180 µM: G-361
15.8 µM: A3-KAW
279 µM: SK-MEL3
1890 µM: HDLM-2
254 µM: NCI-H748
305 µM: BC-3
85 µM: NALM-6
99.8 µM: LC4-1 | NCCIT
275 µM: MEL-JUSO
177 µM: H4 | HT-144
96.2 µM: DSH1
171 µM: TUR
825 µM: DU-145
175 µM: SNU-423
297 µM: EB2
706 µM: NCI-H1792
489 µM: CGTH-W-1
1360 µM: TE-6
13.3 µM: U-698-M
293 µM: NCI-H522
57.6 µM: J82 | SIG-M5
4.58 µM: SR
899 µM: DU-4475
313 µM: RPMI 8402
71 µM: ST486
242 µM: COLO-680N
94 µM: GB-1
120 µM: PA-1
208 µM: no-11
308 µM: REH
> 4000 µM: all other assays above

CC1=C2C[C@H]3[C@@H](CC=C4C[C@@H](O)CC[C@@]43C)[C@@H]2CC[C@]12O[C@@H]1C[C@H](C)CN[C@H]1[C@H]2C [CYCLOPAMINE]
15.9 µM: RPMI 8402
not listed: DU-145 | G-361 | H4 | HSC-4 | HT-1080 | HT55 | J82 | MEL-JUSO | NCI-H1792 | NCI-H441 | NCI-H522 | PA-1 | PC-14 | SK-MEL3 | SNU-423 | 23132-87 | AU565 | COLO-680N
> 16 µM: all other assays above

CS(=O)(=O)CCNCc1ccc(-c2ccc3ncnc(Nc4ccc(OCc5cccc(F)c5)c(Cl)c4)c3c2)o1 [LAPATINIB]
0.094 µM: DSH1
1.55 µM: TE-6
not listed: DU-145 | G-361 | H4 | HSC-4 | HT-1080 | HT55 | J82 | MEL-JUSO | NCI-H1792 | NCI-H441 | NCI-H522 | PA-1 | PC-14 | SK-MEL3 | SNU-423 | 23132-87 | AU565 | COLO-680N
> 2 µM: all other assays above

CO[C@H]1C[C@@H]2CC[C@@H](C)[C@@](O)(O2)C(=O)C(=O)N2CCCC[C@H]2C(=O)O[C@H]([C@H](C)C[C@@H]2CC[C@@H](O)[C@H](OC)C2)CC(=O)[C@H](C)/C=C(\C)[C@@H](O)[C@@H](OC)C(=O)[C@H](C)C[C@H](C)/C=C/C=C/C=C/1C [SIROLIMUS]
0.00299 µM: A3-KAW
0.0218 µM: RPMI 8402
0.0172 µM: SIG-M5
0.0114 µM: SR
0.00277 µM: TE-6
0.0842 µM: CMK
0.0867 µM: LC4-1
0.0832 µM: no-11
0.0992 µM: BC-3
not listed: DU-145 | G-361 | H4 | HSC-4 | HT-1080 | HT55 | J82 | MEL-JUSO | NCI-H1792 | NCI-H441 | NCI-H522 | PA-1 | PC-14 | SK-MEL3 | SNU-423 | 23132-87 | AU565 | COLO-680N
> 0.1 µM: all other assays above

Cc1cc(Nc2cc(N3CCN(C)CC3)nc(Sc3ccc(NC(=O)C4CC4)cc3)n2)n[nH]1 [TOZASERTIB]
1.02 µM: DU-4475
1.42 µM: CMK
0.511 µM: NCI-H524
0.231 µM: ST486
0.0255 µM: NALM-6
0.167 µM: SIG-M5
0.246 µM: SR
0.638 µM: HT-144
not listed: DU-145 | G-361 | H4 | HSC-4 | HT-1080 | HT55 | J82 | MEL-JUSO | NCI-H1792 | NCI-H441 | NCI-H522 | PA-1 | PC-14 | SK-MEL3 | SNU-423 | 23132-87 | AU565 | COLO-680N
> 2 µM: all other assays above
